How the values were obtained:
Format in all cases: in vivo
Adoxophyes honmai = experiment: Pesticidal test against Adoxophyes honmai (artificial feed dip); details: 144 h, 2-stage larvae, examined after 6 days, 25° C., read-out: pesticidal rate; for pest or weed control at 1 ppm: concentration 1 ppm; for pest or weed control at 10 ppm: concentration 10 ppm
Experimental: (§1) Pesticidal Test against Adoxophyes honmai A thinly sliced artificial feed was immersed for 30 seconds in a chemical solution in which a test compound had been prepared at a predetermined concentration, and air-dried, and then put into a 7 cm polyethylene cup having a filter paper laid on the bottom thereof, and 2-stage larvae of Adoxophyes honmai were released. They were left to stand in a thermostatic chamber at 25° C., and the numbers of the living pests and the dead pests were examined after 6 days. The test was carried out with five larvae per group in two replicates. Further, the above compound (A) was used as a comparative compound.

Laodelphax striatellus = experiment: Pesticidal test against Laodelphax striatellus (rice seedling spray); details: 144 h, concentration 100 ppm, 3-stage larvae, examined after 6 days, 25° C., read-out: pesticidal rate
Outline: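 Rice seedlings sprayed with 2.5 ml acetone solution of compound at a predetermined concentration, air-dried, then infested with third-stage Laodelphax striatellus larvae in capped water-containing tubes at 25 °C. Living and dead insects counted after 6 days; ten larvae per group, two replicates.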

Choristoneura magnanima = experiment: Pesticidal test against Choristoneura magnanima (artificial feed dip); details: 144 h, 2-stage larvae, examined after 6 days, 25° C., read-out: pesticidal rate; for pest or weed control at 1 ppm: concentration 1 ppm
Experimental: as §1, with “Choristoneura magnanima” for “Adoxophyes honmai”

Helicoverpa armigera = experiment: Pesticidal test against Helicoverpa armigera (cabbage leaf disk dip); details: foliar, 72 h, concentration 1 ppm, 2-stage larvae, examined after 3 days, 25° C., read-out: pesticidal rate
Experimental: as §1, with “Helicoverpa armigera” for “Adoxophyes honmai”, “cabbage leaf disk” for “thinly sliced artificial feed”, “air-dried. The leaf disk was” for “air-dried, and then”, “6-hole plastic” for “7 cm polyethylene”, “released with one insect being released per hole.” for “released.”, “3” for “6”

Spodoptera litura = experiment: Pesticidal test against Spodoptera litura (cabbage leaf dip); details: foliar, 144 h, concentration 1 ppm, 2-stage larvae, examined after 6 days, 25° C., read-out: pesticidal rate
Outline: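 Cabbage leaf pieces dipped 30 seconds in compound solution at a predetermined concentration and air-dried, then offered to second-stage larvae, five per group in two replicates. Held at 25° C. Living and dead larvae counted after 6 days.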

Musca domestica = experiment: Pesticidal test against Musca domestica (petri dish dry film); details: 24 h, concentration 100 ppm, female adults, examined after 1 day, 25° C., read-out: pesticidal rate
Outline: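 Female adult houseflies were confined at 25° C in capped 9 cm petri dishes coated with an air-dried film from 1 ml acetone solution of compound (predetermined concentration). Mortality was scored 1 day later, two replicates of five per group.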

Plutella xylostella = experiment: Pesticidal test against Plutella xylostella (cabbage leaf dip); details: foliar, 144 h, concentration 1 ppm, 2-stage larvae, examined after 6 days, 25° C., read-out: pesticidal rate
Outline: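 Second-stage larvae (5 per group, two replicates) were released onto air-dried cabbage leaf discs that had been immersed for 30 seconds in compound solution at a set concentration. Mortality was scored after 6 days at 25° C.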

O=C(Nc1c(I)cc(C(F)(C(F)(F)F)C(F)(F)C(F)(F)F)cc1I)c1cccc(NC(=O)c2ccccc2F)c1 (stereo not shown) [6-72]
≥ 70%: pest or weed control at 1 ppm (Adoxophyes honmai) | pest or weed control at 100 ppm (Laodelphax striatellus) | pest or weed control at 1 ppm (Choristoneura magnanima) | pest or weed control at 1 ppm (Helicoverpa armigera) | pest or weed control at 1 ppm (Spodoptera litura) | pest or weed control at 100 ppm (Musca domestica) | pest or weed control at 1 ppm (Plutella xylostella)

N#Cc1cccc(C(=O)Nc2cccc(C(=O)Nc3c(Br)cc(C(F)(C(F)(F)F)C(F)(F)C(F)(F)F)cc3C(F)(F)F)c2)c1 (stereo not shown) [6-366]
≥ 70%: pest or weed control at 1 ppm (Adoxophyes honmai) | pest or weed control at 1 ppm (Choristoneura magnanima) | pest or weed control at 1 ppm (Helicoverpa armigera) | pest or weed control at 1 ppm (Spodoptera litura) | pest or weed control at 100 ppm (Musca domestica) | pest or weed control at 1 ppm (Plutella xylostella)

O=C(Nc1cccc(C(=O)Nc2c(Br)cc(C(F)(C(F)(F)F)C(F)(F)C(F)(F)F)cc2C(F)(F)F)c1F)c1ccc(F)cc1 (stereo not shown) [6-1655]
≥ 70%: pest or weed control at 1 ppm (Adoxophyes honmai) | pest or weed control at 100 ppm (Laodelphax striatellus) | pest or weed control at 1 ppm (Choristoneura magnanima) | pest or weed control at 1 ppm (Helicoverpa armigera) | pest or weed control at 1 ppm (Spodoptera litura) | pest or weed control at 1 ppm (Plutella xylostella)

N#Cc1cccc(C(=O)Nc2cccc(C(=O)Nc3c(Br)cc(C(F)(C(F)(F)F)C(F)(F)C(F)(F)F)cc3C(F)(F)F)c2F)c1 (stereo not shown) [6-1672]
≥ 70%: pest or weed control at 1 ppm (Adoxophyes honmai) | pest or weed control at 100 ppm (Laodelphax striatellus) | pest or weed control at 1 ppm (Choristoneura magnanima) | pest or weed control at 1 ppm (Helicoverpa armigera) | pest or weed control at 1 ppm (Spodoptera litura) | pest or weed control at 100 ppm (Musca domestica) | pest or weed control at 1 ppm (Plutella xylostella)

O=C(Nc1c(Br)cc(C(F)(C(F)(F)F)C(F)(F)C(F)(F)F)cc1C(F)(F)F)c1cccc(NC(=O)c2c(F)cccc2F)c1F (stereo not shown) [6-1674]
≥ 70%: pest or weed control at 1 ppm (Adoxophyes honmai) | pest or weed control at 100 ppm (Laodelphax striatellus) | pest or weed control at 1 ppm (Choristoneura magnanima) | pest or weed control at 1 ppm (Helicoverpa armigera) | pest or weed control at 1 ppm (Spodoptera litura) | pest or weed control at 1 ppm (Plutella xylostella)

O=C(Nc1cccc(C(=O)Nc2c(Br)cc(C(F)(C(F)(F)F)C(F)(F)C(F)(F)F)cc2C(F)(F)F)c1F)c1ccc(Cl)nc1 (stereo not shown) [6-1695]
≥ 70%: pest or weed control at 10 ppm (Adoxophyes honmai) | pest or weed control at 100 ppm (Laodelphax striatellus) | pest or weed control at 1 ppm (Choristoneura magnanima) | pest or weed control at 1 ppm (Helicoverpa armigera) | pest or weed control at 1 ppm (Spodoptera litura) | pest or weed control at 100 ppm (Musca domestica) | pest or weed control at 1 ppm (Plutella xylostella)

O=C(Nc1cccc(C(=O)Nc2c(I)cc(C(F)(C(F)(F)F)C(F)(F)C(F)(F)F)cc2C(F)(F)F)c1F)c1ccccc1F (stereo not shown) [6-1809]
≥ 70%: pest or weed control at 1 ppm (Adoxophyes honmai) | pest or weed control at 100 ppm (Laodelphax striatellus) | pest or weed control at 1 ppm (Choristoneura magnanima) | pest or weed control at 1 ppm (Helicoverpa armigera) | pest or weed control at 1 ppm (Spodoptera litura) | pest or weed control at 100 ppm (Musca domestica) | pest or weed control at 1 ppm (Plutella xylostella)

N#Cc1cccc(C(=O)Nc2cccc(C(=O)Nc3c(I)cc(C(F)(C(F)(F)F)C(F)(F)C(F)(F)F)cc3C(F)(F)F)c2F)c1 (stereo not shown) [6-1828]
≥ 70%: pest or weed control at 1 ppm (Adoxophyes honmai) | pest or weed control at 100 ppm (Laodelphax striatellus) | pest or weed control at 1 ppm (Choristoneura magnanima) | pest or weed control at 1 ppm (Helicoverpa armigera) | pest or weed control at 1 ppm (Spodoptera litura) | pest or weed control at 100 ppm (Musca domestica) | pest or weed control at 1 ppm (Plutella xylostella)

O=C(Nc1c(I)cc(C(F)(C(F)(F)F)C(F)(F)C(F)(F)F)cc1C(F)(F)F)c1cccc(NC(=O)c2c(F)cccc2F)c1F (stereo not shown) [6-1830]
≥ 70%: pest or weed control at 1 ppm (Adoxophyes honmai) | pest or weed control at 100 ppm (Laodelphax striatellus) | pest or weed control at 1 ppm (Choristoneura magnanima) | pest or weed control at 1 ppm (Helicoverpa armigera) | pest or weed control at 1 ppm (Spodoptera litura) | pest or weed control at 100 ppm (Musca domestica) | pest or weed control at 1 ppm (Plutella xylostella)

O=C(Nc1cccc(C(=O)Nc2c(I)cc(C(F)(C(F)(F)F)C(F)(F)C(F)(F)F)cc2C(F)(F)F)c1F)c1ccc(Cl)nc1 (stereo not shown) [6-1851]
≥ 70%: pest or weed control at 10 ppm (Adoxophyes honmai) | pest or weed control at 100 ppm (Laodelphax striatellus) | pest or weed control at 1 ppm (Choristoneura magnanima) | pest or weed control at 1 ppm (Helicoverpa armigera) | pest or weed control at 1 ppm (Spodoptera litura) | pest or weed control at 100 ppm (Musca domestica) | pest or weed control at 1 ppm (Plutella xylostella)

O=C(Nc1cccc(C(=O)Nc2c(C(F)(F)F)cc(C(F)(C(F)(F)F)C(F)(F)F)cc2C(F)(F)F)c1F)c1ccccc1 [6-2110, 3-benzamide-2-fluoro-N-(4-(perfluoropropan-2-yl)-2,6-bis(trifluoromethyl)phenyl)benzamide]
≥ 70%: pest or weed control at 10 ppm (Adoxophyes honmai) | pest or weed control at 100 ppm (Laodelphax striatellus) | pest or weed control at 10 ppm (Choristoneura magnanima; concentration 10 ppm) | pest or weed control at 1 ppm (Helicoverpa armigera) | pest or weed control at 1 ppm (Spodoptera litura) | pest or weed control at 100 ppm (Musca domestica) | pest or weed control at 1 ppm (Plutella xylostella)

CN(C(=O)c1cccc(F)c1)c1cccc(C(=O)Nc2c(Br)cc(C(F)(C(F)(F)F)C(F)(F)C(F)(F)F)cc2C(F)(F)F)c1 (stereo not shown) [7-348]
≥ 70%: pest or weed control at 1 ppm (Adoxophyes honmai) | pest or weed control at 100 ppm (Laodelphax striatellus) | pest or weed control at 1 ppm (Choristoneura magnanima) | pest or weed control at 1 ppm (Helicoverpa armigera) | pest or weed control at 1 ppm (Spodoptera litura) | pest or weed control at 100 ppm (Musca domestica) | pest or weed control at 1 ppm (Plutella xylostella)

CN(C(=O)c1cccc(C#N)c1)c1cccc(C(=O)Nc2c(Br)cc(C(F)(C(F)(F)F)C(F)(F)C(F)(F)F)cc2C(F)(F)F)c1 (stereo not shown) [7-366]
≥ 70%: pest or weed control at 1 ppm (Adoxophyes honmai) | pest or weed control at 1 ppm (Choristoneura magnanima) | pest or weed control at 1 ppm (Helicoverpa armigera) | pest or weed control at 1 ppm (Spodoptera litura) | pest or weed control at 100 ppm (Musca domestica) | pest or weed control at 1 ppm (Plutella xylostella)

CN(C(=O)c1ccc(F)cc1)c1cccc(C(=O)Nc2c(I)cc(C(F)(C(F)(F)F)C(F)(F)F)cc2I)c1F [7-1263]
≥ 70%: pest or weed control at 10 ppm (Adoxophyes honmai) | pest or weed control at 100 ppm (Laodelphax striatellus) | pest or weed control at 1 ppm (Choristoneura magnanima) | pest or weed control at 1 ppm (Helicoverpa armigera) | pest or weed control at 1 ppm (Spodoptera litura) | pest or weed control at 1 ppm (Plutella xylostella)

CN(C(=O)c1cccc(C#N)c1)c1cccc(C(=O)Nc2c(I)cc(C(F)(C(F)(F)F)C(F)(F)C(F)(F)F)cc2I)c1F (stereo not shown) [7-1358]
≥ 70%: pest or weed control at 1 ppm (Adoxophyes honmai) | pest or weed control at 100 ppm (Laodelphax striatellus) | pest or weed control at 1 ppm (Choristoneura magnanima) | pest or weed control at 1 ppm (Helicoverpa armigera) | pest or weed control at 1 ppm (Spodoptera litura) | pest or weed control at 100 ppm (Musca domestica) | pest or weed control at 1 ppm (Plutella xylostella)

CN(C(=O)c1cc(C#N)cc(C#N)c1)c1cccc(C(=O)Nc2c(Br)cc(C(F)(C(F)(F)F)C(F)(F)F)cc2C(F)(F)F)c1F [7-1605]
≥ 70%: pest or weed control at 1 ppm (Adoxophyes honmai) | pest or weed control at 100 ppm (Laodelphax striatellus) | pest or weed control at 1 ppm (Choristoneura magnanima) | pest or weed control at 1 ppm (Helicoverpa armigera) | pest or weed control at 1 ppm (Spodoptera litura) | pest or weed control at 1 ppm (Plutella xylostella)

CN(C(=O)c1ccc(F)nc1)c1cccc(C(=O)Nc2c(Br)cc(C(F)(C(F)(F)F)C(F)(F)F)cc2C(F)(F)F)c1F [7-1616]
≥ 70%: pest or weed control at 10 ppm (Adoxophyes honmai) | pest or weed control at 100 ppm (Laodelphax striatellus) | pest or weed control at 1 ppm (Choristoneura magnanima) | pest or weed control at 1 ppm (Helicoverpa armigera) | pest or weed control at 1 ppm (Spodoptera litura) | pest or weed control at 1 ppm (Plutella xylostella)

— patent publication US8686044B2, “Amide derivative, pest control agent containing the amide derivative, and use of the amide derivative” (Mitsui Chemicals Agro, Inc., priority 2008, dated 2014)
